From patent US20250100996A1, “HETEROCYCLOALKYL AND HETEROARYL COMPOUNDS AND PHARMACEUTICAL COMPOSITIONS THAT MODULATE IKZF2” (Plexium, Inc., priority 2021, published 2025)

Tests used:
[1] = biological target: T1, IKZF2 (Helios) (Homo sapiens, UniProt Q9UKS7); assay: IKZF2 reporter degradation assay (HEK 293T IKZF2-mNeonGreen reporter cell line); assay type: cell-based; conditions: HEK 293T IKZF2-mNeonGreen reporter, 24 hours incubation
T1 construct: Leu-Asp junction (codons ctcgac before the linker); mScarlet (behind P2A) (C, cleaved yes); expressed in transfected cells
Source text: (§1) Polycistronic plasmids were constructed for the mammalian expression of fluorescent reporter fusions of human transcription factors IKZF1 (Ikaros), IKZF2 (Helios), and IKZF3 (Aiolos). The respective protein sequences had their C-terminal end joined to a GGGGS linker repeated three times followed by mNeonGreen, P2A sequence, and mScarlet. The DNA sequences of the open reading frames are as follows:
(§2) IKZF1, IKZF2, and IKZF3 constructs were cloned into the UCOE Hygromycin expression vectors (Millipore Sigma). Reporter constructs were transfected using cationic lipid reagents into adherent HEK 293T cells and stable integrants were selected by treatment with 200 μg/mL hygromycin B. Clonal populations were obtained from the population of stable integrants either by limiting dilution or fluorescence activated cell sorting.
(§3) The clonal stable cell lines were maintained under constant 200 μg/mL hygromycin B selection while being passaged for use in the degradation assays. […] The fluorescence intensity of the IKZF1/2/3-mNeonGreen (FITC channel) and mScarlet (PE channel) reporters were routinely analyzed by flow cytometry to confirm consistent expression levels between experiments.
(§4) The IKZF1/IKZF2/IKZF3 degradation assays were carried out by harvesting the HEK 293T reporter cell lines and resuspending the cells in media formulated for reduced background fluorescence (FluoroBrite; Thermo Fisher). The respective cell lines were seeded at a density of 4000 cells/well into black-walled 384-well optical grade assay tissue culture plates. The cells were incubated overnight at 37° C. to allow for attachment to the assay plate. Dilutions of the compounds were prepared in DMSO from 10 mM compound stocks. The assay plates were treated with appropriate concentrations of the compounds by dispensing the DMSO dilutions in quadruplicate wells with an upper limit of 0.5% final DMSO.
(§5) After 24 hours incubation with the compounds, the assay plates were imaged on an ImageXpress Pico microscopy system (cells maintained at 37° C. during imaging) to obtain the fluorescent readouts. The assay plates were imaged in the FITC and Tetramethylrhodamine (TRITC) channels to obtain the mNeonGreen fluorescence intensity (reporter degradation data) and mScarlet fluorescence intensity (for cell segmentation). 293T-IKZF1 and 293T-IKZF3 reporter cell lines were imaged with exposures of 500 milliseconds (ms) for both FITC and TRITC channels, while the 293T-IKZF2 reporter cell line was imaged with exposures of 1000 ms for FITC and 1250 ms for TRITC. The resulting data was analyzed with Cell Reporter Xpress software using the 2-channel cell scoring analysis with a “percent positive” readout. The TRITC channel was selected for the “nuclei” segmentation with a threshold of 20 while the FITC channel was selected for the “Marker 1” segmentation and a threshold of 100 for the IKZF1 and IKZF3 reporter lines. […] The minimum segmentation width was set to 6 micrometers and the maximum segmentation width was set to 15 micrometers for all cell lines. The DC50 calculations were determined by regression to best fit four-parameter logistic curves using GraphPad Prism.

[2] = biological target: T2, human E3 ligase component cereblon (CRBN) (Homo sapiens, UniProt Q96SW2); assay: Cereblon (CRBN) target engagement, NanoBRET TE Intracellular E3 Ligase Assay in transfected HEK-293T cells; conditions: read-out: CRBN Binding EC50
T2 construct: host or cells: HEK293T
Procedure: HEK293T cells were harvested ca. 75% confluent with trypsin and plated (500,000 cells/well) in a 6-well tissue culture plate in 2 mL of Dulbecco's Modified Eagle Medium (DMEM)^+10% Fetal Bovine Serum (FBS) and incubated overnight at 37° C.
The NanoLuc-CRBN fusion vector (Nluc-CRBN; Promega) contains the coding region of human E3 ligase component cereblon (CRBN) fused to the C-terminus of the NanoLuc luciferase coding region. A mixture of 10 ng Nluc-CRBN and 990 ng DDB1 Expression Vector (Promega) was added to 125 μL Opti-Minimum Essential Medium (Opti-MEM™; Thermo Fisher) along with […] P3000 reagent (Thermo Fisher) in a 1.5 mL epppendorf tube. This solution was added to Lipofectamine 3000 transfection reagent (5 μL; Thermo Fisher) in Opti-MEM (125 μL), mixed well, and incubated for 15 minutes at room temperature. The transfection mixture was added dropwise to cells and incubated overnight at 37° C., 5% CO2. Following transfection, cells were washed once with PBS, and trypsin (250 μL) was added and incubated 30-45 see to dislodge cells. Complete media (2 mL) was added to resuspend cells to form a single cell suspension. Cells were centrifuged at 320×g for 5 min at room temperature, the supernatant was removed, and the cell pellet resuspended in Opti-MEM (3 mL; wash step repeated ×2). After final resuspension in 5 mL Opti-MEM, cells were counted and resuspended at 200,000 cells/mL in Opti-MEM.
Cereblon target engagement was monitored by Bioluminescence Resonance Energy Transfer (BRET) in transfected HEK-293T cells using the NanoBRET TE Intracellular E3 Ligase Assay (Promega). Briefly, 384-well plates (white opaque plates, Corning 3574, low binding surface) were seeded with transfected HEK-293T cells (38 μL/well). 2 μL of 10 μM CRBN tracer (diluted 1:5 in Tracer Dilution Buffer) was added to each well. Plates were centrifuged at 320×g for 1 min at room temperature. Test compounds were added in a 11-point dilution series (typically 10 μM to 100 pM) using a TECAN D300e Digital Dispenser. Plates were shaken for 2 minutes on a microplate shaker to mix compounds. Plates were centrifuged at 320×g for 1 min at room temperature, and subsequently incubated for 2 hours at 37° C.
After incubation, plates were allowed to cool to room temperature for 15 minutes. 20 μL of 3× Complete NanoBRET™ Nano-Glo® Substrate plus Inhibitor Solution (Promega, 1:166 Substrate and 1:500 dilution of Extracellular NanoLuc® Inhibitor diluted in Opti-MEM) were added to each well. Plates were incubated with shaking at room temperature for 3 minutes covered with foil. Plates were read on a CLARIOstar microplate reader (BMG LabTech), measuring at 450 nm (donor emission) and 610 nm (acceptor emission). The IC50 values were determined by regression to best fit four-parameter logistic curves using GraphPad Prism.

[3] = biological target: T3, IKZF3 (Aiolos) (Homo sapiens, UniProt Q9UKT9); assay: IKZF3 reporter degradation assay (HEK 293T IKZF3-mNeonGreen reporter cell line); assay type: cell-based; conditions: HEK 293T IKZF3-mNeonGreen reporter, 24 hours incubation
T3 construct: Leu-Asp junction (codons ctcgac before the linker); mScarlet (behind P2A) (C, cleaved yes); expressed in transfected cells
Source text: as §1, §2, §3, §4, §5

T3 sequence (Q96SW2 whole entry partner): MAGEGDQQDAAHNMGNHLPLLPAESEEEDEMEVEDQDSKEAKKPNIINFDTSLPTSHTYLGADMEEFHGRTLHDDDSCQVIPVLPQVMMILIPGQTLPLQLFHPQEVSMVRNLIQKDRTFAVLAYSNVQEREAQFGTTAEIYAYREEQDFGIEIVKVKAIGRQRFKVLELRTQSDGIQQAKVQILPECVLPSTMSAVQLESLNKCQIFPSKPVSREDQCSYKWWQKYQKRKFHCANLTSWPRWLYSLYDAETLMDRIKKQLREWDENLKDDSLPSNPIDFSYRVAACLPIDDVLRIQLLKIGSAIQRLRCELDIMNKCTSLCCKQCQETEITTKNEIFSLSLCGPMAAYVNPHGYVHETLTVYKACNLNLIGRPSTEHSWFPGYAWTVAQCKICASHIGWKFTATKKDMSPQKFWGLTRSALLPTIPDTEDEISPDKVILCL
T3 sequence (Q16531 whole entry partner): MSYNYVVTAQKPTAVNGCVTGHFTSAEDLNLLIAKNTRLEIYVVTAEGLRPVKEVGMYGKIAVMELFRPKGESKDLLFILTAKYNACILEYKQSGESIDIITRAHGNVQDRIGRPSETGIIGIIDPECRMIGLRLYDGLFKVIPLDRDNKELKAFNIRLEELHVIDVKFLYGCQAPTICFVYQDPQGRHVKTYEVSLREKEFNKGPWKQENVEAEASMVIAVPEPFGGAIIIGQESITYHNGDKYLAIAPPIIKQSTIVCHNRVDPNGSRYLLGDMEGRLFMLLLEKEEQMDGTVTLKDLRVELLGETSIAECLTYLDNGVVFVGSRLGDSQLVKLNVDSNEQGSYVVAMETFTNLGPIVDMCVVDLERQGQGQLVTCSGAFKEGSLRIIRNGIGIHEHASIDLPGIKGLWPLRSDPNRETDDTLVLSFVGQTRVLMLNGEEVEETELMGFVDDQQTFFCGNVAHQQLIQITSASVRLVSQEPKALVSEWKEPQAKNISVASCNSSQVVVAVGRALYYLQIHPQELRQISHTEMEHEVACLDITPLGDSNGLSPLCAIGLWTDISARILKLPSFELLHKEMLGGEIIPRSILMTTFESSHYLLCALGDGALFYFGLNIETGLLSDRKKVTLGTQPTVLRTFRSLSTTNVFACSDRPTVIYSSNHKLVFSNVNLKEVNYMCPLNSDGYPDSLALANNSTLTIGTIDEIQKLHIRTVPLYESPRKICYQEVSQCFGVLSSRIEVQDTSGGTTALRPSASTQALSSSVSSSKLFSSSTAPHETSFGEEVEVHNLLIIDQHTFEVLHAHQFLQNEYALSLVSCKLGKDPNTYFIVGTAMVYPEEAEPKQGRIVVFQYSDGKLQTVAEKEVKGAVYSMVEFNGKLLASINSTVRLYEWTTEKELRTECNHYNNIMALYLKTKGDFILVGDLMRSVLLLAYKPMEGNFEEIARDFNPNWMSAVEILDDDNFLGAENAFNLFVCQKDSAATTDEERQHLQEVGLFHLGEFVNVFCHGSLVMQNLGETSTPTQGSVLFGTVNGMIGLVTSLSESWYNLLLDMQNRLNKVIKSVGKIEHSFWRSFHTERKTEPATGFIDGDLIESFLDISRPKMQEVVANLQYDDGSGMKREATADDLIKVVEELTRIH
T3 sequence (Q9UKT9 whole entry): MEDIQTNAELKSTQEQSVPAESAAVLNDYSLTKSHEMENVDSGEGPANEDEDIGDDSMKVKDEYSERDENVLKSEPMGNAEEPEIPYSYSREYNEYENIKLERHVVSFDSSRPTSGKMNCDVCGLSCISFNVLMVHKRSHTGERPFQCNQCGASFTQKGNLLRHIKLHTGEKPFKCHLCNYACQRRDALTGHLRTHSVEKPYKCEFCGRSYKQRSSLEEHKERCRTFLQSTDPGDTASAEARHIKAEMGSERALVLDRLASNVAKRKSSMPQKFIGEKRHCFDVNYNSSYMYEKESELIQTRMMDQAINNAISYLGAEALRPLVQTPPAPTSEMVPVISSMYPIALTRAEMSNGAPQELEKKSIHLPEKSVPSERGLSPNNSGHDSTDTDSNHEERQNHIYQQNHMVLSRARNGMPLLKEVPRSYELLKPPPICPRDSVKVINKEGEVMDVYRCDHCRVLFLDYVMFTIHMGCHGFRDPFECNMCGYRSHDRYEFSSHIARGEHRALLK
T2 sequence (Q96SW2 whole entry): as the sequence (Q96SW2 whole entry partner) above
T2 sequence (Q16531 whole entry partner): as the sequence (Q16531 whole entry partner) above
T1 sequence (Q9UKS7 whole entry): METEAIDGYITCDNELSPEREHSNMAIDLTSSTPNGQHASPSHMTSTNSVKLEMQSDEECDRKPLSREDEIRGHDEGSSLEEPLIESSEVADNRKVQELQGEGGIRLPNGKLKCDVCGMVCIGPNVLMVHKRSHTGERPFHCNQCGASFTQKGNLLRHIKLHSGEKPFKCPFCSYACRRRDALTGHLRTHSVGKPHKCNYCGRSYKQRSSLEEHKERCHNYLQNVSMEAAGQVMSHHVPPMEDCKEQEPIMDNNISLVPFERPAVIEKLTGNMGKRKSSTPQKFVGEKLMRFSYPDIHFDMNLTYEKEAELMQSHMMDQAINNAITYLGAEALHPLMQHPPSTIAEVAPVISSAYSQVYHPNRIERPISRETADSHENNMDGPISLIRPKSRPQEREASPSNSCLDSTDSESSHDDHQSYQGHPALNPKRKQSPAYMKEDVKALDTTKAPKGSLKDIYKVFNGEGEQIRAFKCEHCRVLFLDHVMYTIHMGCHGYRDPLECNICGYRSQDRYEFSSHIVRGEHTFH
T1 sequence (Q96SW2 whole entry, further chain): as the sequence (Q96SW2 whole entry partner) above
T1 sequence (Q16531 whole entry partner): as the sequence (Q16531 whole entry partner) above

Compound | DC50 [1] [nM] | EC50 [2] [nM] | DC50 [3] [nM]
N#Cc1cc(C2CN([C@H]3CCCC[C@@H]3Oc3ccc4c(c3)CN(C3CCC(=O)NC3=O)C4=O)C2)ccn1 (mixture of isomers) [Compound 180-B, Rac-4-(1-((trans)-2-((2-(2,6-dioxopiperidin-3-yl)-1-oxoisoindolin-5-yl)oxy)cyclohexyl)azetidin-3-yl)picolinonitrile] | > 30000 | 41 | > 30000
O=C1CCC(N2Cc3cc(O[C@H]4CCCC[C@H]4N4CC(c5ncc(C(F)(F)F)cn5)C4)ccc3C2=O)C(=O)N1 (single isomer, unassigned) [Compound 121-B] | > 30000 | 5 | 
O=C1CCC(N2Cc3cc(O[C@H]4CCCC[C@H]4N4CC(c5ncc(C(F)(F)F)cn5)C4)ccc3C2=O)C(=O)N1 (single isomer, unassigned) [Compound 122-B] | > 30000 | 13 | 
O=C1CCC(N2Cc3cc(O[C@@H]4CCCC[C@H]4N4CC(c5ccc(C(F)(F)F)nc5)C4)ccc3C2=O)C(=O)N1 (single isomer, unassigned) [Compound 124-B] | > 30000 | 29 | > 30000
O=C1CCC(N2Cc3cc(O[C@@H]4CCCC[C@H]4N4CC(c5ncc(C6CC6)cn5)C4)ccc3C2=O)C(=O)N1 (single isomer, unassigned) [Compound 132-B] | > 30000 | 3 | 
O=C1CCC(N2Cc3cc(O[C@@H]4CCCC[C@H]4N4CC(c5ncc(C6CC6)cn5)C4)ccc3C2=O)C(=O)N1 (single isomer, unassigned) [Compound 133-B] | > 30000 | 10 | 
O=C1CCC(N2Cc3cc(O[C@@H]4CCCC[C@@H]4N4CC(c5cncc(Cl)c5)C4)ccc3C2=O)C(=O)N1 (stereo partly drawn) [Compound 105-B, 3-(5-(((1R,2S)-2-(3-(5-chloropyridin-3-yl)azetidin-1-yl)cyclohexyl)oxy)-1-oxoisoindolin-2-yl)piperidine-2,6-dione] | > 30000 | 29 | 
O=C1CCC(N2Cc3cc(OC4CCCC4N4CC(c5ccc(C(F)(F)F)nc5)C4)ccc3C2=O)C(=O)N1 (stereo not shown) [Compound 141-B, 3-(1-oxo-5-((2-(3-(6-(trifluoromethyl)pyridin-3-yl)azetidin-1-yl)cyclopentyl)oxy)isoindolin-2-yl)piperidine-2,6-dione] | > 30000 | 37 | > 30000

Continued, values first:

DC50 [1] [nM] | EC50 [2] [nM] | DC50 [3] [nM] | Compound
> 30000 | 5 | > 30000 | O=C1CCC(N2Cc3cc(O[C@@H]4CCCC[C@@H]4N4CC(c5ncc(Br)cn5)C4)ccc3C2=O)C(=O)N1 (mixture of isomers) [Compound 138-B, Rac-3-(5-(((cis)-2-(3-(5-bromopyrimidin-2-yl)azetidin-1-yl)cyclohexyl)oxy)-1-oxoisoindolin-2-yl)piperidine-2,6-dione]
> 30000 | 34 | > 30000 | O=C1CCC(N2Cc3cc(O[C@H]4CCCC[C@@H]4N4CC(c5ncncc5Cl)C4)ccc3C2=O)C(=O)N1 (mixture of isomers) [Compound 140-B, Rac-3-(5-(((trans)-2-(3-(5-chloropyrimidin-4-yl)azetidin-1-yl)cyclohexyl)oxy)-1-oxoisoindolin-2-yl)piperidine-2,6-dione]
> 30000 | 15 | > 30000 | O=C1CCC(N2Cc3cc(O[C@H]4CCCC[C@H]4N4CC(c5ccc(Cl)cn5)C4)ccc3C2=O)C(=O)N1 (mixture of isomers) [Compound 164-B, Rac-3-(5-(((cis)-2-(3-(5-chloropyridin-2-yl)azetidin-1-yl)cyclohexyl)oxy)-1-oxoisoindolin-2-yl)piperidine-2,6-dione]
> 30000 | 10 | > 30000 | O=C1CCC(N2Cc3cc(O[C@H]4CCCC[C@H]4N4CC(c5ccc6ccccc6n5)C4)ccc3C2=O)C(=O)N1 (stereo partly drawn) [Compound 88-B, 3-(1-oxo-5-(((1S,2R)-2-(3-(quinolin-2-yl)azetidin-1-yl)cyclohexyl)oxy)isoindolin-2-yl)piperidine-2,6-dione]
